Measurements published in ChEMBL document CHEMBL6109091, “Integrated computational and biosensor-based strategies for the discovery of allosteric SMYD3 ligands using diperodon as a starting point” (Bioorg Med Chem, 2025).

Molecular target: T1, Histone-lysine N-methyltransferase SMYD3 (Homo sapiens, UniProt Q9H7B4)
T1 sequence (Q9H7B4 whole entry): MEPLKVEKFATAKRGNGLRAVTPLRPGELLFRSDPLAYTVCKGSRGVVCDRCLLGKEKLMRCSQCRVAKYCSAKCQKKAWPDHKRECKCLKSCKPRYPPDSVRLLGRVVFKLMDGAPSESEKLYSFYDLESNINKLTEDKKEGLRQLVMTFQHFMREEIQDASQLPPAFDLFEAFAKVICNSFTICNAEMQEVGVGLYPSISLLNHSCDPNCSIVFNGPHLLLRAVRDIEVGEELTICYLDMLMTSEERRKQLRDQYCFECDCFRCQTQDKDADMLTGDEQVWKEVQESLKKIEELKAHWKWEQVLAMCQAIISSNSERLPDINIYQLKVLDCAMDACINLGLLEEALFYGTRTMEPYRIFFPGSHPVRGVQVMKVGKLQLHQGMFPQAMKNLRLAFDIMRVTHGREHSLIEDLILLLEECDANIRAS
Experiment: Binding affinity to SMYD3 (unknown origin) assessed as dissociation constant by GCI biosensor based analysis

Compared with `Cc1cc(NC(=O)CCCNC(=O)c2ccsc2)no1`, `Cc1ccsc1C(Cc1ccccc1)NC(=O)Cn1cncn1` (stereo unspecified) is 1.6-fold lower in Kd: ~210 µM for the first, ~130 µM for the second.

Going from `Cc1cc(N2CCC(NC(C)c3sccc3C)C2=O)n(C)n1` (stereo unspecified) to `Cc1cccc(C)c1NC(=O)CN1CCCC1c1ccccc1` (stereo unspecified), the Kd falls from ~3 µM to ~0.4 µM (7.5-fold).

First: CCC(C(=O)NC1CCCC1)N(C)Cc1ncc(C)[nH]1 (stereo unspecified)
Second: O=CNc1ccccc1 [FORMANILIDE]
The Kd of the first is 2.2-fold higher: ~180 µM for the first, ~80 µM for the second. The second binds more tightly here.
